Molecular target: T1, Itk (Homo sapiens, UniProt Q08881)
T1 sequence (Q08881 1-620): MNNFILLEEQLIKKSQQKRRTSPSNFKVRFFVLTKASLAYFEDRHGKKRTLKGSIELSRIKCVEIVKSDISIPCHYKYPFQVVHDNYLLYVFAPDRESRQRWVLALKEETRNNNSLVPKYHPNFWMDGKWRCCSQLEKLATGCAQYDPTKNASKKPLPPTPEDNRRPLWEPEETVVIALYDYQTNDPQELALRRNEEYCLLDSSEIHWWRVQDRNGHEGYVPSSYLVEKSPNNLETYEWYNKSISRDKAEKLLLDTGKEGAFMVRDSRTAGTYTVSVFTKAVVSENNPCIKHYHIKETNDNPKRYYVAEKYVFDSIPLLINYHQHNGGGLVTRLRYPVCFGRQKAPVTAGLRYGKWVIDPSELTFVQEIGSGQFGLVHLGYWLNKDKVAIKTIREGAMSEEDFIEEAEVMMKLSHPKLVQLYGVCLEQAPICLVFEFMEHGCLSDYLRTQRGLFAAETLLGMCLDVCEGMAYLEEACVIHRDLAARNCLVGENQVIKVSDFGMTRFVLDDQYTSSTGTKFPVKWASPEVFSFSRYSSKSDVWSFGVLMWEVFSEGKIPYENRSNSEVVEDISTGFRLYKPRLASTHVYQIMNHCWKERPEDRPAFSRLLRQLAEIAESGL
Experiment: Itk inhibition assay: spectrophotometric coupled enzyme (Method C)
Format: biochemical
Settings: 100 μM ATP, read-out: Ki in the standard coupled enzyme assay (Method C)
Procedure: (§1) The compounds of the present invention were evaluated as inhibitors of human Itk kinase using either a radioactivity-based, spectrophotometric or alphascreen assay.
Compounds were screened for their ability to inhibit Itk using a standard coupled enzyme assay (Fox et al., Protein Sci., (1998) 7, 2249).
Assays were carried out in a mixture of 20 mM MOPS (pH 7.0), 10 mM MgCl2, 0.1% BSA, 1 mM DTT, 2.5 mM phosphoenolpyruvate, 300 μM NADH, 30 μg/ml pyruvate kinase and 10 μg/ml lactate dehydrogenase. Final substrate concentrations in the assay were 100 μM ATP (Sigma Chemicals) and 3 μM peptide (Biotinylated SAM68 Δ332-443). Assays were carried out at 25° C. and in the presence of 10 nM Itk.
An assay stock buffer solution was prepared containing all of the reagents listed above, with the exception of ATP and the test compound of interest. 60 μl of the stock solution was placed in a 96 well plate followed by addition of 2 μl of DMSO stock containing serial dilutions of the test compound (typically starting from a final concentration of 15 μM). The plate was preincubated for 10 minutes at 25° C. and the reaction initiated by addition of 5 μl of ATP. Initial reaction rates were determined with a Molecular Devices SpectraMax Plus plate reader over a 10 minute time course. IC50 and Ki data were calculated from non-linear regression analysis using the Prism software package (GraphPad Prism version 3.0cx for Macintosh, GraphPad Software, San Diego Calif., USA).

Ki, < 1 µM:
COc1ccccc1-c1cccc(Nc2ncc3ccc4sc(C(=O)N5CCNCC5)cc4c3n2)c1 [Compound V-91]
CN(C)C(=O)c1cc2c(ccc3cnc(Nc4cccc(C(C)(C)C)c4)nc32)s1 [Compound V-104]
NC1CCN(C(=O)c2nc3ccc4cnc(Nc5cccc(S(N)(=O)=O)c5)nc4c3s2)CC1 [Compound V-176]
CC(=O)N1CCC(CNC(=O)c2cc3c(ccc4cnc(Nc5cccc(C(C)(C)C)c5)nc43)s2)CC1 [Compound V-118]
CS(=O)(=O)c1cccc(Nc2ncc3ccc4sc(C(=O)N5CCCC5)cc4c3n2)c1 [Compound V-130]
COCCCNCCC(=O)Nc1cccc(Nc2ncc3ccc4sc(C(=O)N5CCOCC5)cc4c3n2)c1 [Compound V-77]
CC(=O)Nc1cccc(Nc2ncc3ccc4sc(C(=O)N5CCOCC5)cc4c3n2)c1 [Compound V-68]
CN1CCN(C(=O)c2cc3c(ccc4cnc(Nc5cccc(Cc6ccccc6)c5)nc43)s2)CC1 [Compound V-86]
CS(=O)(=O)c1cccc(Nc2ncc3ccc4sc(C(=O)NCC5CCNCC5)cc4c3n2)c1 [Compound V-149]
O=C(c1cc2c(ccc3cnc(NCCc4ccccc4Cl)nc32)s1)N1CCNCC1 [Compound V-162]
CS(=O)(=O)c1cccc(Nc2ncc3ccc4sc(C(=O)NCC5CCNC5)cc4c3n2)c1 (stereo not drawn) [Compound V-146]
Cc1cscc1-c1cccc(Nc2ncc3ccc4sc(C(=O)N5CCNCC5)cc4c3n2)c1 [Compound V-96]
O=C(c1cc2c(ccc3cnc(NCCc4ccc(F)cc4)nc32)s1)N1CCNCC1 [Compound V-180]
COc1ccc(CCNc2ncc3ccc4sc(C(=O)N5CCNCC5)cc4c3n2)cc1 [Compound V-175]
O=C(c1cc2c(ccc3cnc(Nc4cccc(Oc5ccccc5)c4)nc32)s1)N1CCNCC1 [Compound V-84]
O=C(c1cc2c(ccc3cnc(Nc4cccc(Cc5ccccc5)c4)nc32)s1)N1CCNCC1 [Compound V-87]
CC(C)c1cccc(Nc2ncc3ccc4sc(C(=O)N5CCNCC5)cc4c3n2)c1 [Compound V-81]
O=C(c1cc2c(ccc3cnc(Nc4ccncc4)nc32)s1)N1CCNCC1 [Compound V-116]
CC(=O)N1CCN(C(=O)c2cc3c(ccc4cnc(Nc5cccc(S(C)(=O)=O)c5)nc43)s2)CC1 [Compound V-147]
O=C(c1cc2c(ccc3cnc(NCCc4cccnc4)nc32)s1)N1CCNCC1 [Compound V-173]
CS(=O)(=O)c1cccc(Nc2ncc3ccc4sc(C(=O)NC5CCC(O)CC5)cc4c3n2)c1 (stereo not drawn) [Compound V-151]
COCCNCCC(=O)Nc1cccc(Nc2ncc3ccc4sc(C(=O)N5CCOCC5)cc4c3n2)c1 [Compound V-76]
NC1CCN(C(=O)c2cc3c(ccc4cnc(Nc5cccc(F)c5)nc43)s2)C1 (stereo not drawn) [Compound V-74]
O=C(c1cc2c(ccc3cnc(Nc4cccc(-c5ccccc5)c4)nc32)s1)N1CCOCC1 [Compound V-58]
O=C(c1cc2c(ccc3cnc(Nc4cccc(-c5cccnc5)c4)nc32)s1)N1CCNCC1 [Compound V-94]
CS(=O)(=O)c1cccc(Nc2ncc3ccc4sc(C(=O)NC5(CO)CCCC5)cc4c3n2)c1 [Compound V-132]
CC(=O)NCCNC(=O)c1cc2c(ccc3cnc(Nc4cccc(S(C)(=O)=O)c4)nc32)s1 [Compound V-135]
CS(=O)(=O)c1cccc(Nc2ncc3ccc4sc(C(=O)N5CCNC(=O)C5)cc4c3n2)c1 [Compound V-131]
CC(C)(C)OC(=O)NC1CCN(C(=O)c2cc3c(ccc4cnc(Nc5cccc(-c6ccccc6)c5)nc43)s2)C1 (stereo not drawn) [Compound V-60]
CN1CCN(C(=O)c2cc3c(ccc4cnc(Nc5cccc(Oc6ccccc6)c5)nc43)s2)CC1 [Compound V-83]
CS(=O)(=O)c1cccc(Nc2ncc3ccc4sc(C(=O)N5CCNCC5)cc4c3n2)c1 [Compound V-100]
CC(=O)N1CCCN(C(=O)c2cc3c(ccc4cnc(Nc5cccc(C(C)(C)C)c5)nc43)s2)CC1 [Compound V-106]
Cc1ccsc1-c1cccc(Nc2ncc3ccc4sc(C(=O)N5CCNCC5)cc4c3n2)c1 [Compound V-95]
CC1CN(C(=O)c2cc3c(ccc4cnc(Nc5cccc(S(C)(=O)=O)c5)nc43)s2)CC(C)N1 (stereo not drawn) [Compound V-137]
CN(C)C(=O)c1ccc(Nc2ncc3ccc4sc(C(=O)N5CCNCC5)cc4c3n2)cc1 [Compound V-121]
O=C(c1cc2c(ccc3cnc(NCCc4ccccc4)nc32)s1)N1CCNCC1 [Compound V-125]
O=C(c1cc2c(ccc3cnc(NCCc4ccc(Cl)cc4)nc32)s1)N1CCNCC1 [Compound V-159]
O=C(c1cc2c(ccc3cnc(Nc4cccc(-c5ccsc5Cl)c4)nc32)s1)N1CCNCC1 [Compound V-97]
NS(=O)(=O)c1cccc(Nc2ncc3ccc4nc(C(=O)N5CCNCC5)sc4c3n2)c1 [Compound V-177]
COC[C@H]1CCCN1C(=O)c1cc2c(ccc3cnc(Nc4cccc(S(C)(=O)=O)c4)nc32)s1 [Compound V-155]
CC(C)c1cccc(Nc2ncc3ccc4sc(C(=O)N5CCC(N)C5)cc4c3n2)c1 (stereo not drawn) [Compound V-82]
O=C(c1cc2c(ccc3cnc(Nc4ccc(N5CCNCC5)cc4)nc32)s1)N1CCNCC1 [Compound V-115]
O=C(c1cc2c(ccc3cnc(Nc4cccc(N5CCNCC5)c4)nc32)s1)N1CCNCC1 [Compound V-113]
CN1CCN(CCC(=O)Nc2cccc(Nc3ncc4ccc5sc(C(=O)N6CCOCC6)cc5c4n3)c2)CC1 [Compound V-70]

Molecular target: T1, Itk
Experiment: Itk inhibition assay: Alphascreen (Method B)
Format: biochemical
Settings: 100 μM ATP
Procedure: as §1
Assays were carried out in a mixture of 20 mM MOPS (pH 7.0), 10 mM MgCl2, 0.1% BSA and 1 mM DTT. Final substrate concentrations in the assay were 100 μM ATP (Sigma Chemicals) and 2 μM peptide (Biotinylated SAM68 Δ332-443). Assays were carried out at 25° C. and in the presence of 10 nM Itk. An assay stock buffer solution was prepared containing all of the reagents listed above, with the exception of ATP and the test compound of interest. 25 μL of the stock solution was placed in each well of a 96 well plate followed by 1 μL of DMSO containing serial dilutions of the test compound (typically starting from a final concentration of 15 μM) in duplicate (final DMSO concentration 2%). The plate was preincubated for 10 minutes at 25° C. and the reaction initiated by addition of 25 μL ATP (final concentration 100 μM). Background counts were determined by the addition of 5 μL 500 mM EDTA to control wells containing assay stock buffer and DMSO prior to initiation with ATP. The reaction was stopped after 30 minutes by diluting the reaction 225-fold into MOPS buffer (20 mM MOPS (pH 7.0), 1 mM DTT, 10 mM MgCl2, 0.1% BSA) containing 50 mM EDTA to bring the final concentration of peptide to 9 nM.
AlphaScreen™ reagents were prepared according to the manufacturers instructions (AlphaScreen™ phosphotyrosine (P-Tyr-100) assay kit, PerkinElmer catalogue number 6760620C). Under subdued lighting, 20 μL of AlphaScreen™ reagents were placed in each well of a white half area 96 well plate (Corning Inc.—COSTAR 3693) with 30 μL of the stopped, diluted kinase reactions. Plates were incubated in the dark for 60 minutes prior to reading on a Fusion Alpha plate reader (PerkinElmer).
After removing mean background values for all of the data points, Ki(app) data were calculated from non-linear regression analysis using the Prism software package (GraphPad Prism version 3.0cx for Macintosh, GraphPad Software, San Diego Calif., USA).

Ki, < 1 µM:
CN(C)/C=N/S(=O)(=O)c1cccc(Nc2ncc3c(n2)-c2sc(N4CCN(C)CC4)nc2CC3)c1 [III-40]
CN(CCNC(=O)c1cc2c(ccc3cnc(Nc4cccc(S(N)(=O)=O)c4)nc32)s1)C(=O)OC(C)(C)C [Compound V-41]
Nc1cccc(Nc2ncc3ccc4sc(C(=O)N5CCOCC5)cc4c3n2)c1 [Compound V-51]
CN1CCN(C(=O)c2cc3c(ccc4cnc(Nc5ccccc5)nc43)s2)CC1 [Compound V-50]
O=C(c1cc2c(ccc3cnc(Nc4ccccc4)nc32)s1)N1CCOCC1 [Compound V-52]
NS(=O)(=O)c1cccc(Nc2ncc3c(n2)-c2sc(N4CCCCC4)nc2CC3)c1 [III-34]
NS(=O)(=O)c1cccc(Nc2ncc3ccc4nc(N5CCOCC5)sc4c3n2)c1 [II-37]
